14 molecules from patent US8987195B2 (priority 2012, dated 2015) can be followed below.

Where two headings read alike, the source gives them in different places.

Assay [1] deals with HCV NS3/4A protease genotype 1b (Hepatitis C virus genotype 1b, UniProt P26663). Kind of assay: HCV NS3/4A protease time-resolved fluorescence (TRF) assay, Ki against genotype 1b. As to conditions: IC50 [gt-1b] (nM), NS3/4A genotype 1b, enzyme 0.2 nM. The format is biochemical. The gist of the method: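 Ki was converted from fitted IC50 using IC50=Ki(1+[S]/KM) and 25 nM substrate. Protease (genotype 1b 0.2 nM, A156T 0.4 nM, 3a 0.025 nM) and compound were pre-mixed 30 min in pH 7.5 HEPES/NaCl/glycerol/DTT buffer. Cleavage then proceeded 2.5 h at room temperature, detected by time-resolved europium fluorescence (340/615 nm).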

The subject of the next assay is HCV genotype 1b replicon. Kind of assay: HCV replicon assay, genotype 1b replicon EC50. The format is cell-based, Hepatitis C virus. As to conditions: Hepatitis C virus, genotype 1b replicon, read-out: EC50 [gt-1b]. The gist of the method:
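Compound dilution series incubated 24-48 h, G418 absent, with HCV genotype 1b replicon cell lines kept under G418 selection beforehand. Luciferase signal or replicon RNA, by ^32P hybridization/protection or TaqMan normalized to cyclophilin A, was measured after washing and lysis. Four-parameter fitting against DMSO control gave EC50.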

For orientation: IC50 means the concentration that inhibits the measured activity by half. What is called EC50 is the concentration giving half of the maximal effect.

On to `COc1ccc2nc(C(F)F)c3c(c2c1Cl)CC[C@]1(C[C@H]2C(=O)N[C@]4(C(=O)NS(=O)(=O)C5(C)CC5)C[C@H]4/C=C\CCCCC[C@H](NC(=O)OC(C)(C)C)C(=O)N2C1)O3` [Example 28, tert-Butyl [(2R,6S,12Z,13aS,14aR,16aS)-10′-chloro-5′-(difluoromethyl)-9′-methoxy-14a-{[(1-methylcyclopropyl)sulfonyl]carbamoyl}-5,16-dioxo-1,1′,2′,5,6,7,8,9,10,11,13a,14,14a,15,16,16a-hexadecahydrospiro[cyclopropa[e]pyrrolo[1,2-a][1,4]diazacyclopentadecine-2,3′-pyrano[2,3-c]quinolin]-6-yl]carbamate], for which the concentration for half-maximal inhibition (IC50) in assay [1] came to 0.016 nM. In the assay on HCV genotype 1b replicon, the 50% effective concentration (EC50) was 14.7 nM.
For `CC(C)(C)OC(=O)N[C@H]1CCCCC/C=C\[C@@H]2C[C@@]2(C(=O)NS(=O)(=O)C2(C)CC2)NC(=O)[C@@H]2C[C@]3(CCc4c(c(C5CC5)nc5ccc6c(c45)OCO6)O3)CN2C1=O` [Example 29, tert-butyl (2′R,6′S,13a′S,14a′R,16a′S,Z)-7-cyclopropyl-14a′-(1-methylcyclopropylsulfonylcarbamoyl)-5′,16′-dioxo-3′,5′,6′,7′,8′,9′,10,10′,11,11′,13a′,14′, 14a′,15′,16′,16a′-hexadecahydro-1′H-spiro[[1,3]dioxolo[4,5-f]pyrano[2,3-c]quinoline-9,2′-cyclopropa[e]pyrrolo[1,2-a][1,4]diazacyclopentadecine]-6′-ylcarbamate], in that order: 0.021 nM and 0.608 nM.
For `CC(C)(C)OC(=O)N[C@H]1CCCCC/C=C\[C@@H]2C[C@@]2(C(=O)NS(=O)(=O)C2(C)CC2)NC(=O)[C@@H]2C[C@]3(CCc4c(c(C(F)(F)F)nc5c(Cl)cccc45)O3)CN2C1=O` [Example 31, tert-butyl ((2R,6S,13aS,14aR,16aS,Z)-7′-chloro-14a-(((1-methylcyclopropyl)sulfonyl)carbamoyl)-5,16-dioxo-5′-(trifluoromethyl)-1′,2′,3,5,6,7,8,9,10,11,13a,14,14a,15, 16,16a-hexadecahydro-1H-spiro[cyclopropa[e]pyrrolo[1,2-a][1,4]diazacyclopentadecine-2,3′-pyrano[2,3-c]quinolin]-6-yl)carbamate], in that order: 0.02 nM and 1.56 nM.
For `COc1ccc2nc(C(F)(F)F)c3c(c2n1)C(F)C[C@]1(C[C@H]2C(=O)N[C@]4(C(=O)NS(=O)(=O)C5(C)CC5)C[C@H]4/C=C\CCCCC[C@H](NC(=O)OC(C)(C)C)C(=O)N2C1)O3` (stereo partly drawn) [Example 33, tert-butyl ((2S,6S,13aS,14aR,16aS,Z)-10′-fluoro-2′-methoxy-14a-(((1-methylcyclopropyl)sulfonyl)carbamoyl)-5,16-dioxo-6′-(trifluoromethyl)-3,5,6,7,8,9,9′,10,10′, 11,13a,14,14a,15,16,16a-hexadecahydro-1H-spiro[cyclopropa[e]pyrrolo[1,2-a][1,4]diazacyclopentadecine-2,8′-pyrano[2,3-c][1,5]naphthyridin]-6-yl)carbamate], in that order: 0.042 nM and 1.65 nM.
In assay [1], `COc1ccc2nc(C)c3c(c2c1)CC[C@]1(C[C@H]2C(=O)N[C@]4(C(=O)NS(=O)(=O)C5(C)CC5)C[C@H]4CCCCCCC[C@H](NC(=O)OC(C)(C)C)C(=O)N2C1)O3` [Example 34, tert-Butyl ((2R,6S,13aR,14aR,16aS)-9′-methoxy-5′-methyl-14a-(((1-methylcyclopropyl)sulfonyl)carbamoyl)-5,16-dioxo-1′,2′,3,5,6,7,8,9,10,11,12,13,13a,14,14a,15, 16,16a-octadecahydro-1H-spiro[cyclopropa[e]pyrrolo[1,2-a][1,4]diazacyclopentadecine-2,3′-pyrano[2,3-c]quinolin]-6-yl)carbamate] registered an IC50 of 0.013 nM. In addition, the EC50 in the assay on HCV genotype 1b replicon worked out at 1.79 nM.
Turning to `COc1ccc2nc(C)c3c(c2c1)CC[C@]1(C[C@H]2C(=O)N[C@]4(C(=O)NS(=O)(=O)C5(C)CC5)C[C@H]4CCCCCCC[C@H](NC(=O)OC(C)(C)C(F)(F)F)C(=O)N2C1)O3` [Example 35], in assay [1], half-maximal inhibition (IC50) was put at 0.016 nM. In the assay with HCV genotype 1b replicon (GETYPE1B|GT1B), the EC50 was 1.69 nM.
Molecule `CCc1nc2ccc(OC)cc2c2c1O[C@]1(C[C@H]2F)C[C@H]2C(=O)N[C@]3(C(=O)NS(=O)(=O)C4(C)CC4)C[C@H]3/C=C\CCCCC[C@H](NC(=O)OCC(C)(C)C)C(=O)N2C1` [Example 36, Neopentyl((1′R,2S,6S,13aS,14aR,16aS,Z)-5′-ethyl-1′-fluoro-9′-methoxy-14a-(((1-methylcyclopropyl)sulfonyl)carbamoyl)-5,16-dioxo-1′,2′,3,5,6,7,8,9,10,11,13a,14,14a, 15,16,16a-hexadecahydro-1H-spiro[cyclopropa[e]pyrrolo[1,2-a][1,4]diazacyclopentadecine-2,3′-pyrano[2,3-c]quinolin]-6-yl)carbamate] registered a 50% inhibitory concentration (IC50) in assay [1] of 0.009 nM. The concentration for a half-maximal effect (EC50) in the assay with HCV genotype 1b replicon stood at 1.2 nM.
For `CC(C)(C)OC(=O)N[C@H]1CCCCC/C=C\[C@@H]2C[C@@]2(C(=O)NS(=O)(=O)C2(C)CC2)NC(=O)[C@@H]2C[C@]3(CCc4c(c(CN5CCOCC5)nc5ccccc45)O3)CN2C1=O` [Example 38, tert-butyl ((2R,6S,13aS,14aR,16aS,Z)-14a-(((1-methylcyclopropyl)sulfonyl)carbamoyl)-5′-(morpholinomethyl)-5,16-dioxo-1′,2′,3,5,6,7,8,9,10,11,13a,14,14a,15,16,16a-hexadecahydro-1H-spiro[cyclopropa[e]pyrrolo[1,2-a][1,4]diazacyclopentadecine-2,3′-pyrano[2,3-c]quinolin]-6-yl)carbamate], in that order: 0.058 nM and 22.1 nM.
In turn, `Cc1nc2ccc(Cl)cc2c2c1O[C@]1(CC2)C[C@H]2C(=O)N[C@]3(C(=O)NS(=O)(=O)C4(C)CC4)C[C@H]3/C=C\CCCCC[C@H](NC(=O)OC(C)(C)C)C(=O)N2C1` [Example 39, tert-Butyl ((2R,6S,13aS,14aR,16aS,Z)-9′-chloro-5′-methyl-14a-(((1-methylcyclopropyl)sulfonyl)carbamoyl)-5,16-dioxo-1′,2′,3,5,6,7,8,9,10,11,13a,14,14a,15,16,16a-hexadecahydro-1H-spiro[cyclopropa[e]pyrrolo[1,2-a][1,4]diazacyclopentadecine-2,3′-pyrano[2,3-c]quuinolin]-6-yl)carbamate] came in with a half-inhibitory concentration (IC50) in assay [1] of 0.004 nM. In the assay on HCV genotype 1b replicon, the EC50 worked out at 0.59 nM.
On to `Cc1nc2ccc(Cl)cc2c2c1O[C@]1(CC2)C[C@H]2C(=O)N[C@]3(C(=O)NS(=O)(=O)C4(C)CC4)C[C@H]3/C=C\CCCCC[C@H](NC(=O)OCC(C)(C)C)C(=O)N2C1` [Example 40, Neopentyl((2R,6S,13aS,14aR,16aS,Z)-9′-chloro-5′-methyl-14a-(((1-methylcyclopropyl)sulfonyl)carbamoyl)-5,16-dioxo-1′,2′,3,5,6,7,8,9,10,11,13a,14,14a,15,16,16a-hexadecahydro-1H-spiro[cyclopropa[e]pyrrolo[1,2-a][1,4]diazacyclopentadecine-2,3′-pyrano[2,3-c]quinolin]-6-yl)carbamate], for which the half-inhibitory concentration (IC50) in assay [1] (K+ salt) stood at 0.005 nM. Further, the concentration giving a half-maximal response (EC50) in the assay with HCV genotype 1b replicon (K+ salt) worked out at 5.33 nM.
Turning to `Cc1nc2ccc(Cl)cc2c2c1O[C@]1(CC2)C[C@H]2C(=O)N[C@]3(C(=O)NS(=O)(=O)C4(C)CC4)C[C@H]3/C=C\CCCCC[C@H](NC(=O)OCC3(C)CC3)C(=O)N2C1` [Example 41], the IC50 in assay [1] (K+ salt) is 0.007 nM. The EC50 in the assay on HCV genotype 1b replicon (GETYPE1B|GT1B, K+ salt) came to 16.2 nM.
`Cc1ccc2nc(C)c3c(c2c1)CC[C@]1(C[C@H]2C(=O)NC4(C(=O)NS(=O)(=O)C5(C)CC5)C[C@H]4/C=C\CCCCC[C@H](NC(=O)OC(C)(C)C)C(=O)N2C1)O3` (stereo partly drawn) [Example 42, tert-Butyl (1aR,3aS,3′R,9S,16aS,Z)-5′,9′-dimethyl-1a-(1-methylcyclopropylsulfonylcarbamoyl)-3,8-dioxo-1a,1′,2,2′,3,3a,4,6,8,9,10,11,12,13,14,16a-hexadecahydro-1H -spiro[cyclopropa[e]pyrrolo[1,2-a][1,4]diazacyclopentadecine-5,3′-pyrano[2,3-c]quinoline]-9-ylcarbamate]: the IC50 in assay [1] turned out to be 0.008 nM. Further, the concentration giving a half-maximal response (EC50) with HCV genotype 1b replicon was 2.59 nM.
On the same counts, the results for `Cc1nc2ccc(F)cc2c2c1O[C@]1(CC2)C[C@H]2C(=O)N[C@]3(C(=O)NS(=O)(=O)C4(C)CC4)C[C@H]3/C=C\CCCCC[C@H](NC(=O)OC(C)(C)C)C(=O)N2C1` [Example 43, tert-Butyl (1aR,3aS,3′R,9S,16aS,Z)-9′-fluoro-5′-methyl-1a-(1-methylcyclopropylsulfonylcarbamoyl)-3,8-dioxo-1a,1′,2,2′,3,3a,4,6,8,9,10,11,12,13,14,16a-hexadecahydro-1H-spiro[cyclopropa[e]pyrrolo[1,2-a][1,4]diazacyclopentadecine-5,3′-pyrano[2,3-c]quinoline]-9-ylcarbamate] are 0.005 nM and 1.25 nM.
`Cc1nc2c(C(F)(F)F)cccc2c2c1O[C@]1(CC2)C[C@H]2C(=O)N[C@]3(C(=O)NS(=O)(=O)C4(C)CC4)C[C@H]3/C=C\CCCCC[C@H](NC(=O)OC(C)(C)C)C(=O)N2C1` [Example 44, tert-Butyl (1aR,3aS,3′R,9S,16aS,Z)-5′-methyl-1a-(1-methylcyclopropylsulfonylcarbamoyl)-3,8-dioxo-7′-(trifluoromethyl)-1a,1′,2,2′,3,3a,4,6,8,9,10,11,12,13,14,16a-hexadecahydro-1H-spiro[cyclopropa[e]pyrrolo[1,2-a][1,4]diazacyclopentadecine-5,3′-pyrano[2,3-c]quinoline]-9-ylcarbamate] came in with a half-inhibitory concentration (IC50) in assay [1] of 0.104 nM. Further, the EC50 with HCV genotype 1b replicon was 1.6 nM.
